These results are taken from ChEMBL document CHEMBL1129150, “Novel antifungal 2-aryl-1-(1H-1,2,4-triazol-1-yl)butan-2-ol derivatives with high activity against Aspergillus fumigatus” (1996).

Converted amounts (≈) assume the structure as drawn. “And” between values parts separate entries of the source, which are not always exact repeats. Equal values may be shown once.

The MFC is the smallest concentration meeting the test's criterion for killing the fungus. By MIC is commonly meant the least concentration at which growth counts as inhibited.

Holding throughout (type): functional
For assay [1], the system named is Aspergillus fumigatus. Kind of assay: In vitro antifungal activity against Aspergillus fumigatus after 24 hr. incubation.
For assay [2], the system named is Aspergillus fumigatus. Kind of assay: In vitro for the antifungal activity against Aspergillus fumigatus.
Assay [3] concerns Mus musculus. Kind of assay: Number of mice cured after 10 days against Aspergillus fumigatus on intravenous infection to mice.
Assay [4] has as its system Mus musculus. Kind of assay: Number of mice surviving due to reduction in kidney fungal burden after 10 days against Aspergillus fumigatus on intravenous infection to mice.
The test system of a further assay is Cryptococcus neoformans. Kind of assay: In vitro antifungal activity against Cryptococcus neoformans.
Assay [5] deals with Candida albicans. As to the kind of experiment: In vitro antifungal activity against Candida albicans.
A further assay deals with Nakaseomyces glabratus. As to the kind of experiment: In vitro antifungal activity against Candida glabrata.
The subject of a further assay is Pichia kudriavzevii. Kind of assay: In vitro antifungal activity against Candida krusei.
In assay [6] the test system is Candida albicans. As to the kind of experiment: In vitro antifungal activity against Candida albicans after 24 hr. incubation.
Where [7] appears, read: Aspergillus fumigatus, 24 h, read-out: MFC.
Where [8] appears, read: Aspergillus fumigatus, read-out: MIC.

With `CC(c1ncnc(Cl)c1F)C(O)(Cn1cncn1)c1ccc(F)cc1F` (stereo not given), the minimal fungicidal concentration (MFC) with Aspergillus fumigatus [1] (setting [7]) worked out at 3.1 µg/mL (≈ 8.08 µM). Besides, the minimal inhibitory concentration (MIC) in the assay with Aspergillus fumigatus [2] (setting [8]) was found to be 3.1 µg/mL (≈ 8.08 µM).

In the assay on Mus musculus [3], `CC(c1ccncn1)C(O)(Cn1cncn1)c1ccc(F)cc1F` (stereo not given) had a No. of cures of 0. Moreover, the MFC in the assay with Aspergillus fumigatus [1] (setting [7]) is 0.39 µg/mL (≈ 1.18 µM). In the assay with Mus musculus [4], the No. of survivors amounted to 3. Moreover, in the assay on Aspergillus fumigatus [2] (setting [8]), the minimal inhibitory concentration (MIC) stood at 0.39 µg/mL (≈ 1.18 µM).

`C[C@@H](c1ccncc1)[C@](O)(Cn1cncn1)c1ccc(F)cc1F` registered a No. of cures in the assay on Mus musculus [3] of 0. For the same molecule, the MFC in the assay with Aspergillus fumigatus [1] (setting [7]) stood at 0.09 µg/mL (≈ 0.272 µM). This molecule also came in with a No. of survivors with Mus musculus [4] of 4. The minimum inhibitory concentration (MIC) in the assay with Aspergillus fumigatus [2] (setting [8]) came out at 0.05 µg/mL (≈ 0.151 µM).

As for `CC(c1cccnc1)C(O)(Cn1cncn1)c1ccc(F)cc1F` (stereo not given), the minimal inhibitory concentration (MIC) in the assay on Aspergillus fumigatus [2] (setting [8]) came out at 0.39 µg/mL (≈ 1.18 µM).

For `OC(Cc1ccccn1)(Cn1cncn1)c1ccc(F)cc1F` (stereo not given), the MIC with Aspergillus fumigatus [2] (setting [8]) was determined as 25 µg/mL (≈ 79 µM).

In the assay with Mus musculus [3], `CC(c1ccncc1F)C(O)(Cn1cncn1)c1ccc(F)cc1F` (stereo not given) showed a No. of cures of 5. In the assay with Aspergillus fumigatus [1] (setting [7]), the MFC came out at 0.19 µg/mL (≈ 0.545 µM). The same molecule displayed a No. of survivors with Mus musculus [4] of 5. In the assay on Aspergillus fumigatus [2] (setting [8]), the MIC was determined as 0.098 µg/mL (≈ 0.281 µM).

Take `CC(c1ncncc1F)C(O)(Cn1cncn1)c1ccc(F)cc1F` (stereo not given): the No. of cures in the assay on Mus musculus [3] was determined as 4. Also, in the assay with Aspergillus fumigatus [1] (setting [7]), the minimal fungicidal concentration (MFC) stood at 0.78 µg/mL (≈ 2.23 µM). This molecule showed a No. of survivors with Mus musculus [4] of 5. The MIC with Aspergillus fumigatus [2] (setting [8]) was 0.39 µg/mL (≈ 1.12 µM).

Regarding `CC(c1ncncc1Cl)C(O)(Cn1cncn1)c1ccc(F)cc1F` (stereo not given), the minimal fungicidal concentration (MFC) with Aspergillus fumigatus [1] (setting [7]) is 1.56 µg/mL (≈ 4.26 µM). For the same molecule, the MIC in the assay on Aspergillus fumigatus [2] (setting [8]) amounted to 0.39 µg/mL (≈ 1.07 µM).

Regarding `CC(n1cncn1)C(O)(Cn1cncn1)c1ccc(F)cc1F` (stereo not given), the minimum fungicidal concentration (MFC) with Aspergillus fumigatus [1] (setting [7]) was determined as 25 µg/mL (≈ 78.1 µM). Moreover, the minimum inhibitory concentration (MIC) with Aspergillus fumigatus [2] (setting [8]) came out at 12.5 µg/mL (≈ 39 µM).

In the case of `OC(Cc1ccncc1)(Cn1cncn1)c1ccc(F)cc1F` (stereo not given), the MIC in the assay on Aspergillus fumigatus [2] (setting [8]) is 3.1 µg/mL (≈ 9.8 µM).

For the molecule `CC(c1ncnc(Cl)c1Cl)C(O)(Cn1cncn1)c1ccc(F)cc1F` (stereo not given), the minimum fungicidal concentration (MFC) in the assay with Aspergillus fumigatus [1] (setting [7]) was 12.5 µg/mL (≈ 31.2 µM). The MIC in the assay on Aspergillus fumigatus [2] (setting [8]) was determined as 3.1 µg/mL (≈ 7.75 µM).

In the case of `CC(c1ccccn1)C(O)(Cn1cncn1)c1ccc(F)cc1F` (stereo in doubt; 23a), the MFC against Aspergillus fumigatus [1] came out at 100 µg/mL (≈ 303 µM). Moreover, in the assay on Aspergillus fumigatus [2], the minimal inhibitory concentration (MIC) amounted to 12.5 µg/mL (≈ 37.8 µM).

In the assay on Aspergillus fumigatus [1], `CC(c1ccccn1)C(O)(Cn1cncn1)c1ccc(F)cc1F` (stereo in doubt; 23b) displayed an MFC of 1.56 µg/mL (≈ 4.72 µM). Besides, in the assay on Aspergillus fumigatus [2], the MIC was found to be 0.39 µg/mL (≈ 1.18 µM).

With `OC(Cn1cncn1)(Cn1cncn1)c1ccc(F)cc1F` [FLUCONAZOLE], the MFC with Aspergillus fumigatus [1] (setting [7]) was above 50 µg/mL. In addition, the MIC against Cryptococcus neoformans is 9.6 µg/mL (≈ 31.3 µM); against Candida albicans [5], 1 µg/mL (≈ 3.27 µM); in the assay with Nakaseomyces glabratus it was 1.9 µg/mL (≈ 6.2 µM); in the assay with Aspergillus fumigatus [2] (setting [8]), above 50 µg/mL; with Pichia kudriavzevii, above 25 µg/mL.

Molecule `CCC(C)n1ncn(-c2ccc(N3CCN(c4ccc(OCC5COC(Cn6cncn6)(c6ccc(Cl)cc6Cl)O5)cc4)CC3)cc2)c1=O` (stereo not given) [ITRACONAZOLE] showed a No. of cures in the assay with Mus musculus [3] of 3. Besides, the minimal inhibitory concentration (MIC) against Aspergillus fumigatus [1] was 0.19 µg/mL (≈ 0.269 µM); against Cryptococcus neoformans it was 0.39 µg/mL (≈ 0.553 µM); against Candida albicans [5], 0.12 µg/mL (≈ 0.17 µM); with Nakaseomyces glabratus, 0.19 µg/mL (≈ 0.269 µM); with Aspergillus fumigatus [2], 0.14 µg/mL and 0.39 µg/mL; against Pichia kudriavzevii it was 0.05 µg/mL (≈ 0.0709 µM). The No. of survivors in the assay with Mus musculus [4] is recorded as 4.

For the molecule `C[C@@H](c1ncncc1F)[C@](O)(Cn1cncn1)c1ccc(F)cc1F` [VORICONAZOLE], the MIC in the assay on Cryptococcus neoformans turned out to be 0.39 µg/mL (≈ 1.12 µM); against Nakaseomyces glabratus, 0.19 µg/mL (≈ 0.544 µM); with Aspergillus fumigatus [2] (setting [8]), 0.09 µg/mL (≈ 0.258 µM); against Pichia kudriavzevii, 0.24 µg/mL (≈ 0.687 µM); in the assay with Candida albicans [6] it was 0.03 µg/mL (≈ 0.0859 µM).
